According to patent publication US20250073209A1, “COVALENT TARGETING OF RhoA FOR CANCER THERAPY” (The University of Hong Kong, priority 2023, published 2025):

Experiments:
CRCs = experiment: MTT assay on CRC cells; type: cell-based, human; details: 48 h
Method: HCT116 cells was seeded at 2,500 cells/well; HT29, LOVO and SW620 cells were seeded at 4,000 cells/well; CCD-18Co cells were seeded at 10,000/well; and SW480 cells were seeded at 12,000 cells/well in 96 well plate in triplicates. Cells were treated with a concentration gradient of CL16 for 48 hours. Then, cells were incubated with 10% 3-(4,5-Dimethylthiazol-2-yl)-2,5-diphenyltetrazolium bromide (MTT) solution ([…]) in 37° C. for 4 hours. Cells were then lyzed in 10% SDS in […] HCl. Absorbance of individual well was measured at 570 nm. IC50 values were analyzed by nonlinear best-fit regression using Prism Graphpad 9.
As discussed above, overexpression/hyperactivity of RhoA associated with poor prognosis and aggressive behaviors of CRCs (FIG. 8A). Thus, the anti-cancer and anti-metastatic properties of CL16 in CRCs were explored. First, it was confirmed that genetic knockdown of RhoA by siRNA slowed down colony formation and migration of CRCs by using staining (data not shown) and wound healing assay (FIG. 4A). MTT assay was used to determine cell viability of CRCs and normal colon fibroblast CCD-18Co cells treated with CL16 for 48 h (n=3 different biological replicates/group). A much lower expression level of RhoA in normal colon fibroblast CCD-18Co cells was also determined, as compared to CRCs, by western blotting (data not shown). […]

Cdc42 [1] = molecular target: T1, Cdc42 (Homo sapiens, UniProt P60953); experiment: Cdc42-GTP PAK-PBD pull-down in HT29 cells; type: cell-based; parameters: endogenous in cells; host or cells: HT29; details: HT29, complete medium 24 h
T1 sequence (P60953 whole entry): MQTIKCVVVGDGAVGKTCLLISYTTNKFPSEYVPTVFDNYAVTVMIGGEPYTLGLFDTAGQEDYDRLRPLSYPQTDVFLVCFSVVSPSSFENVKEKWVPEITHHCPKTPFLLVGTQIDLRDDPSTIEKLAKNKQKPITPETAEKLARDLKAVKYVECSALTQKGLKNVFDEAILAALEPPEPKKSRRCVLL
Source text: The procedure is similar to that for RhoA-GTP assay, except that Rac1-GTP and Cdc42-GTP in CRC cells were first enriched by Rac1 Pull-Down Activation Assay Biochem Kit (Cytoskeleton #BK035) instead of using the RhoA kit. The enriched Rac1-GTP and Cdc42-GTP were then immunoblotted by Rac1/2/3 antibody (CST #2465) and Cdc42 antibody (CST #2462) respectively.
(§1) GTP loading onto RhoA is critical for the protein activation and mediating downstream signals. In view of the inhibitions of GDP-to-GTP exchange of RhoA by CL16 in vitro as discussed above, effects of CL16 on RhoA biology in colorectal cancer cells were examined. In the serum starvation-re-stimulation experiment, HCT116 cells were grown in serum-free medium with CL16, Rhosin or solvent control for 24 h, followed by stimulation with 10% FBS for 10 min. The cells were then lysed and the RhoA activity was assayed by the level of RhoA-GTP, which is the active form of RhoA. […] HT29 cells were incubated with solvent vehicle, CL16 or Rhosin in complete medium for 24 h. The cells were then washed, lysed and subjected to rhotekin pull-down for blotting RhoA-GTP, or PAK-PBD pull-down for blotting Rac1-GTP and Cdc42-GTP. Confocal fluorescence images from HCT116 and HT29 cells expressing FRET RhoA-biosensor in the serum starvation-restimulation experiment were taken.

Cdc42 [2] = molecular target: T1, Cdc42; experiment: Gel-based competitive ABPP, second screening on Cdc42; type: binding
Method: Recombinant human RhoA (0.1 μg; ab101594) was pretreated with cysteine-reactive compounds or DMSO for 1 hour at room temperature, followed by incubation with iodoacetamide-rhodamine (IA-Rh; 1 μM) for 1 hour at room temperature. The reaction was then quenched by boiling in sampling buffer. Samples were subjected to SDS-PAGE to separate proteins bands. In-gel fluorescence intensity was measured with a Chemidoc using setting for Rhodamine. Gel was subsequently stained with silver stain (Pierce) for visualization of protein content and covalent modification. Band intensity was quantified using ImageJ.
CL16 was identified for its strong and specific binding with RhoA in covalent ligand screening experiment by ABPP. ABPP is known as a powerful platform for covalent ligand screening, particularly for the identification of lead compounds targeting new hotspots for therapy. Competitive gel-based activity-based protein profiling (ABPP) experiment was performed on purified RhoA protein for screening its interactions with a library of cysteine-reactive covalent ligands with acrylamide or chloroacetamide warheads. RhoA protein for the first screening and on Rac1 and Cdc42 for the second screening to identify lead compounds with specific binding onto RhoA Cys16. […] The reaction mixture was then resolved by SDS-PAGE and in-gel fluorescence was imaged (FIG. 1A). […]

RhoA = RhoA (Homo sapiens, UniProt P61586); experiment: RhoA-GTP rhotekin pull-down in HT29 cells, complete medium; type: cell-based; parameters: endogenous in cells; host or cells: HCT116, HT29; details: HT29, complete medium 24 h
Sequence of RhoA (P61586 whole entry, the tested form may be a part): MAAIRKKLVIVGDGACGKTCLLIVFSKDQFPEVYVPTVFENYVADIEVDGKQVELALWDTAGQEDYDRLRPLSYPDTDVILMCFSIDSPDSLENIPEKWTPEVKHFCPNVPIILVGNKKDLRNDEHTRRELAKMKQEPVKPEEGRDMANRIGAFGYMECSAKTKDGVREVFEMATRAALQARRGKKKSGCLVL
Method: RhoA Pull-Down Activation Assay Biochem Kit (#BK036) was purchased from Cytoskeleton. According to the manufacturer's protocol, total cell lysate (0.5 mg/mL; 300 μL) was added to 7.5 μL of Rhotekin-Rho Binding Domain beads in 0.6 mL tubes. The solution mixture was incubated at 4° C. on an end-to-end rotator for 1 hour. Beads were washed with 500 μL of washing buffer once, then centrifuged at 5000g for 3 min and the supernatant was discarded. RhoA-GTP was then eluted in 2× laemmli buffer and resolved in 10% SDS-PAGE.
as §1, with “The cells were then washed, lysed and subjected to rhotekin pull-down for blotting RhoA-GTP, or PAK-PBD pull-down for blotting Rac1-GTP and Cdc42-GTP.” left out

For O=C(CCl)N1N=C(c2cc3ccccc3o2)CC1c1ccco1 (stereo not shown) [CL16], the “cytotoxicity (cell viability)” value (CRCs) was “cytotoxicity effects”, the “Cdc42 activity (Cdc42-GTP)” value (Cdc42 [1]) was “no significant changes” and the “binding with Cdc42” value (Cdc42 [2]) was “no observable binding”. For the same compound, the “RhoA activity (RhoA-GTP)” value (RhoA) was “specific inhibition of RhoA activity”.
